Reference: patent US20230381125A1
Where two headings read alike, the source gives them in different places.

Legend:
[1] = cited from earlier work; for CD4+ and CD8+ Treg responses in vivo / autoreactive Th1 and Th17 cells in vivo: in vivo administration; for disease progression in mouse models of type 1 diabetes, multiple sclerosis, and rheumatoid arthritis / inflammation in a mouse model of type 2 diabetes: in vivo
[2] = rodent models of acute lung injury; cited from earlier work
[3] = cited from earlier work
MHV-1 = MHV-1 infected A/J mice given GABA-R agonist in drinking water; type: in vivo; details: for body weight loss vs. plain water (FIG. 4A) / death rate vs. plain water (FIG. 4C) / disease (illness) scores vs. plain water (FIG. 4B) / lung coefficient index vs. plain water (FIG. 4D): Example 2, in water: GABA 2 mg/mL, homotaurine 0.25 mg/mL, baclofen 0.25 mg/mL; for mice that died up to day 14 post-infection: control 3/9 survived; for average body weight loss by day 6: control lost 23%
[4] = molecular target: SARS-CoV-2 binding to its cellular receptor (UniProt P0DTC2+Q9BYF1); details: NIH core screening facility data; cited from earlier work
[5] = phase 1b oral dosing study; cited from earlier work
SARS-CoV-2 [6] = details: cited from earlier work
SARS-CoV-2 [7] = type: in vivo, K18-hACE2 mice; details: for mice that died during the 7-day observation period: control 3/5 died
[8] = tested on: anti-CD3-activated human PBMC; details: cited from earlier work
[9] = room temperature; cited from earlier work
[10] = large long-term phase III clinical trial; cited from earlier work
[11] = GABA 20 mg/ml in water, from 3 days post-infection
[12] = GABA 20 mg/ml in water, starting immediately after MHV-1 inoculation
[13] = 0.2 mg/mL p=0.049, 20 mg/mL p=0.174, log-rank test

SMILES: NCCCC(=O)O [GABA, gamma-aminobutyric acid]
- CD4+ and CD8+ Treg responses in vivo [1]: promoting
- autoreactive Th1 and Th17 cells in vivo [1]: inhibits
- disease progression in mouse models of type 1 diabetes, multiple sclerosis, and rheumatoid arthritis [1]: inhibits disease progression
- inflammation in a mouse model of type 2 diabetes [1]: limits inflammation
- inflammation, alveolar fluid clearance and lung functional recovery [2]: reduce inflammation and improve alveolar fluid clearance and lung functional recovery
- clinical benefit (ability to reduce seizures) ([3]; hundreds of epilepsy patients): no clinical benefit
- adverse effects ([3]; long-term studies in epilepsy patients): no adverse effects
- body weight loss vs. plain water (FIG. 4A) (MHV-1): significantly reduced
- death rate vs. plain water (FIG. 4C) (MHV-1): significantly reduced
- disease (illness) scores vs. plain water (FIG. 4B) (MHV-1): significantly reduced
- body weight loss vs. control (FIG. 1A) (MHV-1; GABA0 and GABA3 vs. control, p<0.0001): reduced
- illness scores vs. control (FIG. 2) (MHV-1; GABA0 and GABA3 vs. control, p<0.001): reduced
- survival following MHV-1 infection vs. control (FIG. 1B) (MHV-1; GABA0 p=0.002, GABA3 p=0.001, log rank test): increased
- highest average illness score (scale 0-5) (MHV-1; GABA 20 mg/ml in water immediately after inoculation, day 7 post-infection): 1.6
- body weight at 14 days post-infection, % of starting weight (MHV-1; [11]): 90%
- maximum mean illness score (scale 0-5) (MHV-1; [11]): 2.5
- mice that died up to day 14 post-infection (MHV-1; GABA 20 mg/ml in water, from 3 days post-infection, death on day 9): 1/9
- average body weight loss by day 6 (MHV-1; GABA 20 mg/ml in water, given from three days after infection): 17%
- average body weight loss by day 6 (MHV-1; GABA 20 mg/ml in water, given immediately after MHV-1 infection): 11%
- body weight below starting weight 14 days post-infection (MHV-1; [12]): 7%
- mice that died up to day 14 post-infection (MHV-1; [12]): none
- interference with SARS-CoV-2 interaction with its cellular receptor [4]: did not interfere
- safety [5]: safe
- interference with SARS-CoV-2 replication (SARS-CoV-2 [6]; NIH core screening facility data): did not interfere
- effect on SARS infection or replication (SARS-CoV-2 [6]; NIH drug screening program): no effect
- death rates vs. plain water (SARS-CoV-2 [7]; [13]): reduced
- survival following SARS-CoV2 infection vs. control (FIG. 5) (SARS-CoV-2 [7]; [13]): increased
- mice that died during the 7-day observation period (SARS-CoV-2 [7]; GABA 0.2 mg/mL in water, p<0.05): none
- mice that died during the 7-day observation period (SARS-CoV-2 [7]; GABA 20 mg/ml in water, p=0.174): 1/5
- viral N1 and N2 transcripts in the lungs (RT-qPCR) vs. control (SARS-CoV-2 [7]; lungs harvested on days 6-7, data not shown): tended to be lower
- IL-6, CXCL10/IP-10, CCL4, CCL20, and MCP-3 production [8]: inhibits
- stability [9]: stable at room temperature

SMILES: NCC(CC(=O)O)c1ccc(Cl)cc1 (centres unmarked) [baclofen]
- body weight loss vs. plain water (FIG. 4A) (MHV-1): did not significantly decrease
- death rate vs. plain water (FIG. 4C) (MHV-1): did not significantly decrease
- disease (illness) scores vs. plain water (FIG. 4B) (MHV-1): slight but significant ability to reduce
- lung coefficient index vs. plain water (FIG. 4D) (MHV-1): did not significantly decrease

SMILES: NCCCS(=O)(=O)O [homotaurine]
- CD4+ and CD8+ Treg responses in vivo [1]: promoting
- autoreactive Th1 and Th17 cells in vivo [1]: inhibits
- disease progression in mouse models of type 1 diabetes, multiple sclerosis, and rheumatoid arthritis [1]: inhibits disease progression
- inflammation in a mouse model of type 2 diabetes [1]: limits inflammation
- body weight loss vs. plain water (FIG. 4A) (MHV-1): significantly reduced
- death rate vs. plain water (FIG. 4C) (MHV-1): significantly reduced
- disease (illness) scores vs. plain water (FIG. 4B) (MHV-1): significantly reduced
- lung coefficient index vs. plain water (FIG. 4D) (MHV-1): significantly reduced
- efficacy in Alzheimer's disease [10]: not effective
- safety [10]: excellent safety record
- stability [9]: stable at room temperature
